In publication PMC10222203 (Pharmaceutics, 2023):

Assays:
dynamin = test system: dynamin; parameters: method as in PMID 16740485, PMID 24491918; details: cited from earlier work
[1] = test system: brain-like endothelial cells (BLECs); assay: in vitro; details: control, absence of peptide (0 nM)
Protocol: The in vitro BBB model, consisting of CD34^+ endothelial cells (ECs) derived from hematopoietic stem cells in co-culture with bovine brain pericytes, was established as described by Cecchelli et al.. Written and informed consent was obtained for the collection of human umbilical cord blood, in compliance with French legislation. […] All experiments were carried out in line with the authorized protocol.
These isolated CD34+ cells were cultured in EGM-2, supplemented with 20% (v:v) FBS and 50 ng/mL vascular endothelial growth factor on 1% (w:v) gelatine-coated 24-well plates (2 × 10^5 cells/well). After 15–20 days, ECs are seen in the culture dish. For each experiment, the cells were expanded in 1% (w:v) gelatine-coated T75 flasks (BD Biosciences, Le Pont-de-Claix, France) in EGM-2. Bovine brain pericytes were isolated and characterized as described by Vandenhaute et al.. Sub-clones were cultured in Dulbecco’s Modified Eagle’s Medium supplemented with 20% (v:v) FBS, 2 mM L-glutamine, 50 µg/mL gentamycin, and 1 ng/mL basic fibroblast growth factor. At confluency, 5 × 10^4 cells were seeded in ECM-5 with 5% (v:v) FBS, 50 µg/mL gentamycin, and 0.5% endothelial cell growth factor in gelatine-coated 12-well plates (Costar, Corning Inc., New York, NY, USA). CD34^+-derived ECs were seeded at 8 × 10^4 cells per Matrigel-coated (BD Biosciences) insert (3401, Corning Inc., NY, USA) and put in co-culture with the bovine brain pericytes, with the pericytes at the bottom of the well, for 6 days to achieve brain-like endothelial cell (BLEC) characteristics (Figure 4b).
At the beginning of the permeability experiments, inserts with BLEC monolayers were transferred to new abluminal (receiver) compartments previously filled with 1.5 mL of RH buffer, and 500 µL of the compounds dissolved in RH buffer, with the addition of the paracellular marker sodium fluorescein (NaFlu), were added to the luminal (donor) compartment. After 3 h of incubation at 37 °C, with a shaking velocity of 60 rpm, aliquots were taken from the donor and receiver compartment. The BLEC monolayers were washed twice with cold RH buffer and lysed with RLT Lysis buffer. The samples were kept at −20 °C pending analysis in low-binding tubes.
An increase in the permeability to NaFlu in the presence of the peptide can indicate an increase in paracellular leakage and consequent loss of barrier integrity. To evaluate the ability of test compounds to cross Matrigel-coated filters without cells and to control for the adsorption to plastics and/or Matrigel, the NaFlu and peptide’s permeability over inserts without cells were also assessed. Mass balance (M.B%) was calculated from the amount of compound recovered in both compartments at the end of the experiment divided by the total amount added to the donor compartment at the start of the experiment.
Samples from both compartments as well as the lysed endothelial cells were analysed for fluorescence using a Synergy H1 (Biotek) set to quantify NaFlu (wavelengths Excitation 490 nm and Emission 525 nm) and with UPLC-MS/MS to assess the permeability and cellular uptake of the peptides. All experiments were performed in triplicate (n = 3 independent experiments per concentration and cCPPs).
Papp is the apparent permeability, J is the rate of appearance of the compound in the receiver compartment (amount/sec), and C0 is the concentration in the donor compartment at the start of the experiment (amount/mL).

SMILES: O=C(N/N=C/c1ccc(O)c(O)c1)c1cc2ccccc2cc1O [Dynasore, dynasore]
- Decrease in dynamin activity (dynamin; 50 µM): 70%
- IC50 (dynamin): 15 µM

SMILES: O=C([O-])c1ccccc1-c1c2ccc(=O)cc-2oc2cc([O-])ccc12.[Na+].[Na+] [sodium fluorescein, reference compound]
- Permeability (Pe) to sodium fluorescein, mean [1]: 0,46 10‐3 cm/min
